# Measurements from PubChem BioAssay (NCI).
#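 These data come from cells grown in 96-well plates and exposed to compound for 48 hours at five concentrations. At the GI50, growth is halved. TGI: total growth inhibition.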
# Experiments:
# Experiment in all cases: growth of human tumour cells (NCI), 48 h
# CCRF-CEM leukemia = test system: CCRF-CEM leukemia
# OVCAR-3 ovarian = test system: OVCAR-3 ovarian
# A498 renal = test system: A498 renal
# UACC-257 melanoma = test system: UACC-257 melanoma
# COLO 205 colon = test system: COLO 205 colon
# SF-268 CNS = test system: SF-268 CNS
# SW-620 colon = test system: SW-620 colon
# MCF7 breast = test system: MCF7 breast
# RPMI-8226 leukemia = test system: RPMI-8226 leukemia
# T-47D breast = test system: T-47D breast
# OVCAR-5 ovarian = test system: OVCAR-5 ovarian
# NCI-H522 lung = test system: NCI-H522 lung
# SK-MEL-28 melanoma = test system: SK-MEL-28 melanoma
# BT-549 breast = test system: BT-549 breast
# HCT-15 colon = test system: HCT-15 colon
# HCC-2998 colon = test system: HCC-2998 colon
# ACHN renal = test system: ACHN renal
# EKVX NSCLC = test system: EKVX NSCLC
# SF-295 CNS = test system: SF-295 CNS
# NCI-H226 lung = test system: NCI-H226 lung
# MDA-MB-435 = test system: MDA-MB-435
# TK-10 renal = test system: TK-10 renal
# SK-MEL-5 melanoma = test system: SK-MEL-5 melanoma
# HOP-62 NSCLC = test system: HOP-62 NSCLC
# IGROV1 ovarian = test system: IGROV1 ovarian
# HL-60(TB) leukemia = test system: HL-60(TB) leukemia
# RXF 393 renal = test system: RXF 393 renal
# HT29 colon = test system: HT29 colon
# DU-145 prostate = test system: DU-145 prostate
# HCT-116 colon = test system: HCT-116 colon
# OVCAR-8 ovarian = test system: OVCAR-8 ovarian
# M14 melanoma = test system: M14 melanoma
# 786-0 renal = test system: 786-0 renal
# UO-31 renal = test system: UO-31 renal
# KM12 colon = test system: KM12 colon
# SNB-75 CNS = test system: SNB-75 CNS
# OVCAR-4 ovarian = test system: OVCAR-4 ovarian
# CAKI-1 renal = test system: CAKI-1 renal
# PC-3 prostate = test system: PC-3 prostate
# K-562 leukemia = test system: K-562 leukemia
# MDA-MB-231 breast = test system: MDA-MB-231 breast
# MOLT-4 leukemia = test system: MOLT-4 leukemia
# SF-539 CNS = test system: SF-539 CNS
# UACC-62 melanoma = test system: UACC-62 melanoma
# SN12C renal = test system: SN12C renal
# SNB-19 CNS = test system: SNB-19 CNS
# HOP-92 NSCLC = test system: HOP-92 NSCLC
# HS 578T breast = test system: HS 578T breast
# NCI/ADR-RES ovarian = test system: NCI/ADR-RES ovarian
# A549 NSCLC = test system: A549 NSCLC
# NCI-H460 lung = test system: NCI-H460 lung
# MALME-3M melanoma = test system: MALME-3M melanoma
# SK-OV-3 ovarian = test system: SK-OV-3 ovarian
# U251 CNS = test system: U251 CNS
# SK-MEL-2 melanoma = test system: SK-MEL-2 melanoma
# NCI-H23 lung = test system: NCI-H23 lung
# SR leukemia = test system: SR leukemia
# LOX IMVI melanoma = test system: LOX IMVI melanoma
structure (smiles),measurement,setting,value
NC(=O)c1cccc(-n2ccc3cc(NC(=O)Nc4ccc(N5CCOCC5)c(C(F)(F)F)c4)ccc32)n1,GI50,CCRF-CEM leukemia,741 nM
same,TGI,CCRF-CEM leukemia,4740 nM
same,GI50,OVCAR-3 ovarian,1990 nM
same,TGI,OVCAR-3 ovarian,5370 nM
same,GI50,A498 renal,2010 nM
same,TGI,A498 renal,7320 nM
same,GI50,UACC-257 melanoma,2900 nM
same,TGI,UACC-257 melanoma,9040 nM
same,GI50,COLO 205 colon,2060 nM
same,TGI,COLO 205 colon,5510 nM
same,GI50,SF-268 CNS,2670 nM
same,TGI,SF-268 CNS,8940 nM
same,GI50,SW-620 colon,2870 nM
same,TGI,SW-620 colon,> 100000 nM
same,GI50,MCF7 breast,124 nM
same,TGI,MCF7 breast,3160 nM
same,GI50,RPMI-8226 leukemia,505 nM
same,TGI,RPMI-8226 leukemia,2290 nM
same,GI50,T-47D breast,463 nM
same,TGI,T-47D breast,3020 nM
same,GI50,OVCAR-5 ovarian,2950 nM
same,TGI,OVCAR-5 ovarian,> 100000 nM
same,GI50,NCI-H522 lung,2070 nM
same,TGI,NCI-H522 lung,7820 nM
same,GI50,SK-MEL-28 melanoma,2040 nM
same,TGI,SK-MEL-28 melanoma,8830 nM
same,GI50,BT-549 breast,1790 nM
same,TGI,BT-549 breast,5040 nM
same,GI50,HCT-15 colon,1590 nM
same,TGI,HCT-15 colon,6610 nM
same,GI50,HCC-2998 colon,3150 nM
same,GI50,ACHN renal,2700 nM
same,TGI,ACHN renal,8590 nM
same,GI50,EKVX NSCLC,2900 nM
same,TGI,EKVX NSCLC,> 100000 nM
same,GI50,SF-295 CNS,419 nM
same,TGI,SF-295 CNS,2310 nM
same,GI50,NCI-H226 lung,1740 nM
same,TGI,NCI-H226 lung,6600 nM
same,GI50,MDA-MB-435,2030 nM
same,TGI,MDA-MB-435,7190 nM
same,GI50,TK-10 renal,2750 nM
same,TGI,TK-10 renal,8290 nM
same,GI50,SK-MEL-5 melanoma,1510 nM
same,TGI,SK-MEL-5 melanoma,3470 nM
same,GI50,HOP-62 NSCLC,1500 nM
same,TGI,HOP-62 NSCLC,4100 nM
same,GI50,IGROV1 ovarian,2250 nM
same,TGI,IGROV1 ovarian,6940 nM
same,GI50,HL-60(TB) leukemia,2050 nM
same,TGI,HL-60(TB) leukemia,7500 nM
same,GI50,RXF 393 renal,245 nM
same,TGI,RXF 393 renal,743 nM
same,GI50,HT29 colon,2340 nM
same,TGI,HT29 colon,> 100000 nM
same,GI50,DU-145 prostate,3010 nM
same,TGI,DU-145 prostate,> 100000 nM
same,GI50,HCT-116 colon,1910 nM
same,TGI,HCT-116 colon,8570 nM
same,GI50,OVCAR-8 ovarian,1480 nM
same,TGI,OVCAR-8 ovarian,8380 nM
same,GI50,M14 melanoma,2250 nM
same,TGI,M14 melanoma,6910 nM
same,GI50,786-0 renal,670 nM
same,TGI,786-0 renal,40600 nM
same,GI50,UO-31 renal,1840 nM
same,TGI,UO-31 renal,5210 nM
same,GI50,KM12 colon,397 nM
same,TGI,KM12 colon,4410 nM
same,GI50,SNB-75 CNS,690 nM
same,TGI,SNB-75 CNS,4010 nM
same,GI50,OVCAR-4 ovarian,2250 nM
same,TGI,OVCAR-4 ovarian,7090 nM
same,GI50,CAKI-1 renal,1900 nM
same,TGI,CAKI-1 renal,9410 nM
same,GI50,PC-3 prostate,1670 nM
same,TGI,PC-3 prostate,6200 nM
same,GI50,K-562 leukemia,946 nM
same,TGI,K-562 leukemia,> 100000 nM
same,GI50,MDA-MB-231 breast,2560 nM
same,TGI,MDA-MB-231 breast,7960 nM
same,GI50,MOLT-4 leukemia,1650 nM
same,TGI,MOLT-4 leukemia,9010 nM
same,GI50,SF-539 CNS,616 nM
same,TGI,SF-539 CNS,2790 nM
same,GI50,UACC-62 melanoma,1650 nM
same,TGI,UACC-62 melanoma,4140 nM
same,GI50,SN12C renal,2190 nM
same,TGI,SN12C renal,7360 nM
same,GI50,SNB-19 CNS,1860 nM
same,TGI,SNB-19 CNS,6550 nM
same,GI50,HOP-92 NSCLC,2100 nM
same,TGI,HOP-92 NSCLC,4820 nM
same,GI50,HS 578T breast,835 nM
same,TGI,HS 578T breast,4830 nM
same,GI50,NCI/ADR-RES ovarian,2650 nM
same,TGI,NCI/ADR-RES ovarian,35400 nM
same,GI50,A549 NSCLC,2640 nM
same,TGI,A549 NSCLC,> 100000 nM
same,GI50,NCI-H460 lung,2220 nM
same,TGI,NCI-H460 lung,6510 nM
same,GI50,MALME-3M melanoma,1590 nM
same,TGI,MALME-3M melanoma,4340 nM
same,GI50,SK-OV-3 ovarian,2730 nM
same,TGI,SK-OV-3 ovarian,8950 nM
same,GI50,U251 CNS,1250 nM
same,TGI,U251 CNS,12100 nM
same,GI50,SK-MEL-2 melanoma,2110 nM
same,TGI,SK-MEL-2 melanoma,5090 nM
COc1cc2c3c(n(CCCN4CCCCC4)c(=O)c2cc1OC)-c1cc2c(cc1C3=O)OCO2,GI50,CCRF-CEM leukemia,130 nM
same,TGI,CCRF-CEM leukemia,988 nM
same,GI50,OVCAR-3 ovarian,1630 nM
same,TGI,OVCAR-3 ovarian,3020 nM
same,GI50,NCI-H23 lung,1530 nM
same,TGI,NCI-H23 lung,3010 nM
same,GI50,UACC-257 melanoma,1760 nM
same,TGI,UACC-257 melanoma,3960 nM
same,GI50,COLO 205 colon,1110 nM
same,TGI,COLO 205 colon,2430 nM
same,GI50,SW-620 colon,193 nM
same,TGI,SW-620 colon,1350 nM
same,GI50,MCF7 breast,145 nM
same,TGI,MCF7 breast,2050 nM
same,GI50,RPMI-8226 leukemia,333 nM
same,TGI,RPMI-8226 leukemia,1470 nM
same,GI50,T-47D breast,1580 nM
same,TGI,T-47D breast,3560 nM
same,GI50,OVCAR-5 ovarian,1840 nM
same,TGI,OVCAR-5 ovarian,3290 nM
same,GI50,NCI-H522 lung,932 nM
same,TGI,NCI-H522 lung,2460 nM
same,GI50,HCT-15 colon,1260 nM
same,TGI,HCT-15 colon,2600 nM
same,GI50,HCC-2998 colon,1220 nM
same,TGI,HCC-2998 colon,2470 nM
same,GI50,NCI-H226 lung,1540 nM
same,TGI,NCI-H226 lung,3690 nM
same,GI50,MDA-MB-435,1660 nM
same,TGI,MDA-MB-435,3220 nM
same,GI50,SK-MEL-5 melanoma,1600 nM
same,TGI,SK-MEL-5 melanoma,3010 nM
same,GI50,SR leukemia,143 nM
same,TGI,SR leukemia,893 nM
same,GI50,HL-60(TB) leukemia,341 nM
same,TGI,HL-60(TB) leukemia,965 nM
same,GI50,HT29 colon,1280 nM
same,TGI,HT29 colon,2670 nM
same,GI50,DU-145 prostate,1370 nM
same,TGI,DU-145 prostate,2680 nM
same,GI50,HCT-116 colon,150 nM
same,TGI,HCT-116 colon,309 nM
same,GI50,OVCAR-8 ovarian,1680 nM
same,TGI,OVCAR-8 ovarian,4170 nM
same,GI50,M14 melanoma,1590 nM
same,TGI,M14 melanoma,3050 nM
same,GI50,KM12 colon,1510 nM
same,TGI,KM12 colon,2850 nM
same,GI50,LOX IMVI melanoma,716 nM
same,TGI,LOX IMVI melanoma,2150 nM
same,GI50,PC-3 prostate,1260 nM
same,TGI,PC-3 prostate,2690 nM
same,GI50,K-562 leukemia,179 nM
same,TGI,K-562 leukemia,499 nM
same,GI50,MDA-MB-231 breast,1210 nM
same,TGI,MDA-MB-231 breast,2590 nM
same,GI50,MOLT-4 leukemia,42.3 nM
same,TGI,MOLT-4 leukemia,2020 nM
same,GI50,SF-539 CNS,1460 nM
same,TGI,SF-539 CNS,2830 nM
same,GI50,UACC-62 melanoma,1380 nM
same,TGI,UACC-62 melanoma,2830 nM
same,GI50,SN12C renal,1590 nM
same,TGI,SN12C renal,3050 nM
same,GI50,HS 578T breast,2070 nM
same,TGI,HS 578T breast,4770 nM
same,GI50,MALME-3M melanoma,1650 nM
same,TGI,MALME-3M melanoma,3450 nM
same,GI50,SK-MEL-2 melanoma,12400 nM
same,TGI,SK-MEL-2 melanoma,28300 nM
